# From ChEMBL document CHEMBL1909294, “Translating clinical findings into knowledge in drug safety evaluation--drug induced liver injury prediction system (DILIps)” (PLoS Comput Biol, 2011)
# What was measured:
# Hepatotoxicity [1] = tested on: Hepatotoxicity;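 for HepSE cholecystitis: Cholecystitis-related hepatic side effect score drawn from the DILIps (drug-induced liver injury prediction) training data set; call rule not given here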;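 for HepSE cholelithiasis: hepatic side effect score for cholelithiasis, drawn from the DILIps training data for predicting drug-induced liver injury; call rule not given here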; for HepSE hepatic failure: call rule not given here;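 for HepSE hepatitis: Hepatitis-related hepatic side effect score taken from the training data of DILIps, a prediction system for drug-induced liver injury; call rule not given here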;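 for HepSE hepatomegaly: hepatic side effect score for hepatomegaly, taken from the training set of the DILIps drug-induced liver injury prediction system; call rule not given here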;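 for HepSE jaundice: Jaundice-related hepatic side-effect score drawn from the training data of the DILIps (drug-induced liver injury prediction system); call rule not given here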; for HepSE liver disease: call rule not given here
# Hepatotoxicity [2] = tested on: Hepatotoxicity; remark: listed apart in the source;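 for HepSE cholecystitis: Cholecystitis-related hepatic side effect score drawn from the DILIps (drug-induced liver injury prediction) training data set; call rule not given here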;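 for HepSE cholelithiasis: hepatic side effect score for cholelithiasis, drawn from the DILIps training data for predicting drug-induced liver injury; call rule not given here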; for HepSE hepatic failure: call rule not given here;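 for HepSE hepatitis: Hepatitis-related hepatic side effect score taken from the training data of DILIps, a prediction system for drug-induced liver injury; call rule not given here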;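 for HepSE hepatomegaly: hepatic side effect score for hepatomegaly, taken from the training set of the DILIps drug-induced liver injury prediction system; call rule not given here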;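 for HepSE jaundice: Jaundice-related hepatic side-effect score drawn from the training data of the DILIps (drug-induced liver injury prediction system); call rule not given here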; for HepSE liver disease: call rule not given here
# Hepatotoxicity [3] = tested on: Hepatotoxicity; remark: listed apart in the source;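 for HepSE cholecystitis: Cholecystitis-related hepatic side effect score drawn from the DILIps (drug-induced liver injury prediction) training data set; call rule not given here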;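 for HepSE cholelithiasis: hepatic side effect score for cholelithiasis, drawn from the DILIps training data for predicting drug-induced liver injury; call rule not given here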;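 for HepSE hepatitis: Hepatitis-related hepatic side effect score taken from the training data of DILIps, a prediction system for drug-induced liver injury; call rule not given here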;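 for HepSE hepatomegaly: hepatic side effect score for hepatomegaly, taken from the training set of the DILIps drug-induced liver injury prediction system; call rule not given here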;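 for HepSE jaundice: Jaundice-related hepatic side-effect score drawn from the training data of the DILIps (drug-induced liver injury prediction system); call rule not given here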; for HepSE liver disease: call rule not given here
# Hepatotoxicity [4] = tested on: Hepatotoxicity; remark: listed apart in the source;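 for HepSE cholecystitis: Cholecystitis-related hepatic side effect score drawn from the DILIps (drug-induced liver injury prediction) training data set; call rule not given here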;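 for HepSE cholelithiasis: hepatic side effect score for cholelithiasis, drawn from the DILIps training data for predicting drug-induced liver injury; call rule not given here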;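 for HepSE hepatitis: Hepatitis-related hepatic side effect score taken from the training data of DILIps, a prediction system for drug-induced liver injury; call rule not given here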;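 for HepSE hepatomegaly: hepatic side effect score for hepatomegaly, taken from the training set of the DILIps drug-induced liver injury prediction system; call rule not given here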;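 for HepSE jaundice: Jaundice-related hepatic side-effect score drawn from the training data of the DILIps (drug-induced liver injury prediction system); call rule not given here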; for HepSE liver disease: call rule not given here
# Hepatotoxicity [5] = tested on: Hepatotoxicity; remark: listed apart in the source; for HepSE liver disease: call rule not given here
# Hepatotoxicity [6] = tested on: Hepatotoxicity; remark: listed apart in the source; for HepSE liver disease: call rule not given here
# Hepatotoxicity [7] = tested on: Hepatotoxicity; remark: listed apart in the source
# Hepatotoxicity [8] = tested on: Hepatotoxicity; remark: listed apart in the source
# Hepatotoxicity [9] = tested on: Hepatotoxicity; remark: listed apart in the source
# Hepatotoxicity [10] = tested on: Hepatotoxicity; remark: listed apart in the source
# Hepatotoxicity [11] = tested on: Hepatotoxicity; remark: listed apart in the source
# Hepatotoxicity [12] = tested on: Hepatotoxicity; remark: listed apart in the source
# Hepatotoxicity [13] = tested on: Hepatotoxicity; remark: listed apart in the source
# Hepatotoxicity [14] = tested on: Hepatotoxicity; remark: listed apart in the source
SMILES,HepSE_cholelithiasis (Hepatotoxicity [1]),HepSE_jaundice (Hepatotoxicity [2]),HepSE_liver fatty (Hepatotoxicity [3]),HepSE_cholecystitis (Hepatotoxicity [4]),HepSE_liver disease (Hepatotoxicity [5]),HepSE_hepatitis (Hepatotoxicity [6]),HepSE_hepatomegaly (Hepatotoxicity [7]),HepSE_hepatic necrosis (Hepatotoxicity [8]),HepSE_hepatic failure (Hepatotoxicity [9]),HepSE_Combined Scores (Hepatotoxicity [10]),HepSE_bilirubinemia (Hepatotoxicity [11]),HepSE_cirrhosis (Hepatotoxicity [12]),HepSE_elevated liver function tests (Hepatotoxicity [13]),HepSE_liver function tests abnormal (Hepatotoxicity [14])
CN(C)C(=O)C(CCN1CCC(O)(c2ccc(Cl)cc2)CC1)(c1ccccc1)c1ccccc1 [LOPERAMIDE],0,0,0,0,0,0,0,0,0,0,0,0,0,0
N[C@@H](C(=O)N[C@@H]1C(=O)N2C(C(=O)O)=C(Cl)CC[C@H]12)c1ccccc1 [LORACARBEF ANHYDROUS],0,1,0,0,0,0,0,0,0,1,0,0,0,0
O=C1Nc2ccc(Cl)cc2C(c2ccccc2Cl)=NC1O (stereo not drawn) [LORAZEPAM],0,1,0,0,0,0,0,0,0,2,0,0,0,1
CCCCc1nc(Cl)c(CO)n1Cc1ccc(-c2ccccc2-c2nn[nH]n2)cc1 [LOSARTAN],0,1,0,0,0,1,0,0,0,2,0,0,0,0
CN1CCN(C2=Nc3ccccc3Oc3ccc(Cl)cc32)CC1 [LOXAPINE],0,1,0,0,0,1,0,0,0,2,0,0,0,0
CC(=O)O.NCc1ccc(S(N)(=O)=O)cc1 [MAFENIDE ACETATE],0,0,0,0,0,0,0,0,0,0,0,0,0,0
CCOC(=O)CC(SP(=S)(OC)OC)C(=O)OCC (stereo not drawn) [MALATHION],0,0,0,0,0,0,0,0,0,0,0,0,0,0
